Reference: ChEMBL document CHEMBL5352452, “Design, synthesis and pharmacological evaluation of β-carboline derivatives as potential antitumor agent via targeting autophagy” (Eur J Med Chem, 2023)

Tests used:
Format in all cases: functional, cell-based
BGC-823 = assay: Antiproliferative activity against human BGC-823 cells assessed as inhibition of cell growth measured after 48 hrs by MTT assay; conditions: BGC-823, 48 h
MCF7 = assay: Antiproliferative activity against human MCF7 cells assessed as inhibition of cell growth measured after 48 hrs by MTT assay; conditions: MCF7, 48 h
A-375 = assay: Antiproliferative activity against human A-375 cells assessed as inhibition of cell growth measured after 48 hrs by MTT assay; conditions: A-375, 48 h
786-0 = assay: Antiproliferative activity against human 786-0 cells assessed as inhibition of cell growth measured after 48 hrs by MTT assay; conditions: 786-0, 48 h
HT-29 = assay: Antiproliferative activity against human HT-29 cells assessed as inhibition of cell growth measured after 48 hrs by MTT assay; conditions: HT-29, 48 h
[1] = Antiproliferative activity against human BIU-87 cells assessed as inhibition of cell growth measured after 48 hrs by MTT assay; conditions: BIU87, 48 h
KB = assay: Antiproliferative activity against human KB cells assessed as inhibition of cell growth measured after 48 hrs by MTT assay
CWR22R = assay: Antiproliferative activity against human 22Rv1 cells assessed as inhibition of cell growth measured after 48 hrs by MTT assay; conditions: 22Rv1, 48 h
SK-OV-3 = assay: Antiproliferative activity against human SK-OV-3 cells assessed as inhibition of cell growth measured after 48 hrs by MTT assay; conditions: SK-OV-3, 48 h
ECa-109 cell line = assay: Antiproliferative activity against human Eca-109 cells assessed as inhibition of cell growth measured after 48 hrs by MTT assay; conditions: ECa-109, 48 h

| SMILES | IC50 (BGC-823) [µM] | IC50 (MCF7) [µM] | IC50 (A-375) [µM] | IC50 (786-0) [µM] | IC50 (HT-29) [µM] | IC50 [1] [µM] | IC50 (KB) [µM] | IC50 (CWR22R) [µM] | IC50 (SK-OV-3) [µM] | IC50 (ECa-109 cell line) [µM] |
| --- | --- | --- | --- | --- | --- | --- | --- | --- | --- | --- |
| CN1CCN(Cc2cc3c([nH]c4ccccc43)c(CN3CCN(C)CC3)n2)CC1 | > 100 | > 100 | > 100 | 28.4 | 83.3 | > 100 | > 100 | > 100 | > 100 | > 100 |
| CN1CCN(Cc2cc3c4ccccc4n(Cc4ccccc4)c3c(CN3CCN(C)CC3)n2)CC1 | 58.3 | 27.5 | 13.6 | 2.36 | 6.42 | 15.5 | 24.2 | 6.47 | 15.6 | 16.8 |
| CN1CCN(Cc2cc3c4ccccc4n(Cc4ccc(F)cc4)c3c(CN3CCN(C)CC3)n2)CC1 | 48.7 | 36.4 | 16.8 | 2.68 | 5.98 | 16.9 | 28.6 | 5.62 | 8.72 | 9.87 |
| CN1CCN(Cc2cc3c4ccccc4n(Cc4cccc(Cl)c4)c3c(CN3CCN(C)CC3)n2)CC1 | 36.8 | 15.8 | 12 | 3.21 | 5.68 | 8.01 | 15.6 | 4.93 | 4.62 | 11.3 |
| CN1CCN(Cc2cc3c4ccccc4n(C)c3c(CN3CCN(C)CC3)n2)CC1 | > 100 | > 100 | 85.9 | 13.4 | 46.8 | > 100 | > 100 | > 100 | 93.5 | > 100 |
| CCCCn1c2ccccc2c2cc(CN3CCN(C)CC3)nc(CN3CCN(C)CC3)c21 | 98.5 | 50.2 | 17.2 | 2.32 | 11 | 23.9 | 34.8 | 4.63 | 27.3 | 25.6 |
